This test has as its target AMPK. In words: AMPK activation, enzyme-linked immunosorbent assay. The format is biochemical. Particulars: Table 8, compounds of Table 1. The method in brief:
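AMPK activation by test compounds was measured by enzyme-linked immunosorbent assay.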
`NC(=O)c1ccc(CN2CCC(Oc3ccc4oc(C(=O)NC5CCN(Cc6ccccc6)CC5)cc4c3)CC2)cc1` [Compound 1-116, N-(1-benzylpiperidin-4-yl)-5-(1-(4-carbamoylbenzyl)piperidin-4-yloxy)benzofuran-2-carboxamide]: the half-maximal effective concentration (EC50) fell in the range of 100 to 500 nM.
The value for `CN(C(=O)c1cc2cc(OC3CCN(c4ccc(C(F)(F)F)cc4)CC3)ccc2o1)C1CCN(Cc2ccccn2)CC1` [Compound 1-117, N-methyl-N-(1-(pyridin-2-ylmethyl)piperidin-4-yl)-5-(1-(4-(trifluoromethyl)phenyl)piperidin-4-yloxy)benzofuran-2-carboxamide] was < 100 nM; that for `CN(C(=O)c1cc2cc(OC3CCN(c4ccc(C(F)(F)F)cc4)CC3)ccc2o1)C1CCN(C(=O)c2ccncc2)CC1` [Compound 1-118, N-(1-isonicotinoylpiperidin-4-yl)-N-methyl-5-(1-(4-(trifluoromethyl)phenyl)piperidin-4-yloxy)benzofuran-2-carboxamide] was 100 to 500 nM; that for `CN(C(=O)c1cc2cc(OC3CCN(c4ccc(C(F)(F)F)cc4)CC3)ccc2o1)C1CCN(Cc2ccc(C(F)(F)F)cc2)CC1` [Compound 1-119, N-methyl-N-(1-(4-(trifluoromethyl)benzyl)piperidin-4-yl)-5-(1-(4-(trifluoromethyl)phenyl)piperidin-4-yloxy)benzofuran-2-carboxamide] was < 100 nM.
`CC(C)(C)OC(=O)N1CC[C@@H](NC(=O)c2cc3cc(OC4CCN(c5ccc(C(F)(F)F)cc5)CC4)ccc3o2)C1` [Compound 1-120, (R)-tert-butyl 3-(5-(1-(4-(trifluoromethyl)phenyl)piperidin-4-yloxy)benzofuran-2-carboxamido) pyrrolidine-1-carboxylate] yielded a concentration giving a half-maximal response (EC50) of 1000 to 5000 nM.
As for `O=C(N[C@@H]1CCNC1)c1cc2cc(OC3CCN(c4ccc(C(F)(F)F)cc4)CC3)ccc2o1` [Compound 1-121, (R)-N-(pyrrolidin-3-yl)-5-(1-(4-(trifluoromethyl)phenyl)piperidin-4-yloxy)benzofuran-2-carboxamide], the EC50 is > 10000 nM.
The result for `O=C(N[C@@H]1CCN(Cc2ccncc2)C1)c1cc2cc(OC3CCN(c4ccc(C(F)(F)F)cc4)CC3)ccc2o1` [Compound 1-122, (R)-N-(1-(pyridin-4-ylmethyl)pyrrolidin-3-yl)-5-(1-(4-(trifluoromethyl)phenyl)piperidin-4-yloxy)benzofuran-2-carboxamide] reads 100 to 500 nM; that for `O=C(N[C@@H]1CCN(Cc2cccnc2)C1)c1cc2cc(OC3CCN(c4ccc(C(F)(F)F)cc4)CC3)ccc2o1` [Compound 1-123, (R)-N-(1-(pyridin-3-ylmethyl)pyrrolidin-3-yl)-5-(1-(4-(trifluoromethyl)phenyl)piperidin-4-yloxy)benzofuran-2-carboxamide], 100 to 500 nM.
The compound `O=C(N[C@@H]1CCN(Cc2ccccn2)C1)c1cc2cc(OC3CCN(c4ccc(C(F)(F)F)cc4)CC3)ccc2o1` [Compound 1-124, (R)-N-(1-(pyridin-2-ylmethyl)pyrrolidin-3-yl)-5-(1-(4-(trifluoromethyl)phenyl)piperidin-4-yloxy)benzofuran-2-carboxamide] displayed a concentration for a half-maximal effect (EC50) of 1000 to 5000 nM.
The result for `O=C(N[C@@H]1CCN(C(=O)c2ccncc2)C1)c1cc2cc(OC3CCN(c4ccc(C(F)(F)F)cc4)CC3)ccc2o1` [Compound 1-125, (R)-N-(1-isonicotinoylpyrrolidin-3-yl)-5-(1-(4-(trifluoromethyl)phenyl)piperidin-4-yloxy)benzofuran-2-carboxamide] reads 1000 to 5000 nM; that for `O=C(N[C@@H]1CCN(S(=O)(=O)c2cccnc2)C1)c1cc2cc(OC3CCN(c4ccc(C(F)(F)F)cc4)CC3)ccc2o1` [Compound 1-126, (R)-N-(1-(pyridin-3-ylsulfonyl)pyrrolidin-3-yl)-5-(1-(4-(trifluoromethyl)phenyl)piperidin-4-yloxy)benzofuran-2-carboxamide], 1000 to 5000 nM.

What is called EC50 is the concentration that produces a half-maximal response. Lower therefore signals a more potent agent.

The values above are taken from patent US9409884B2 (Rigel Pharmaceuticals, Inc., priority 2012, dated 2016).
